Measured values taken from ChEMBL document CHEMBL1134612, “A structure-based design approach to the development of novel, reversible AChE inhibitors” (J Med Chem, 2001).

Target: Acetylcholinesterase (Torpedo californica, UniProt P04058)
Sequence (P04058 whole entry): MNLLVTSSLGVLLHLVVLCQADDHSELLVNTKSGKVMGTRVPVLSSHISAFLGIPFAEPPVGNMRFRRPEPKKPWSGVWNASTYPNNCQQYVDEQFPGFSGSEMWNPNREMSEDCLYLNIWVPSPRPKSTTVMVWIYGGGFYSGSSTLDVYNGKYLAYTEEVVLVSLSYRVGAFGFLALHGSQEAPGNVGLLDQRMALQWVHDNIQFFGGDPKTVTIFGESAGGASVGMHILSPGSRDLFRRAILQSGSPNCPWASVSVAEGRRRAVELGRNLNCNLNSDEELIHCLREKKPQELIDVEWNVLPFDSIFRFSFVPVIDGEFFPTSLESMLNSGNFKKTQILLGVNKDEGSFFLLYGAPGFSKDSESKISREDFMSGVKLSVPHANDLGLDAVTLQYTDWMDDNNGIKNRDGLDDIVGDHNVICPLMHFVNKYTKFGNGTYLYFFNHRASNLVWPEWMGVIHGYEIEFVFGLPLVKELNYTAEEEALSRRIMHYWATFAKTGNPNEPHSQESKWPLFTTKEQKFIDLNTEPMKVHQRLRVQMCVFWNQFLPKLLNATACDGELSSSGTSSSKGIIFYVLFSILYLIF
Description: Inhibition of activity against Torpedo Ray acetylcholinesterase.

Row | SMILES | IC50 [nM]
1 | OC(O)(CCCCCNc1c2c(nc3cccc(Cl)c13)CCCCC2)C(F)(F)F | 36
2 | Nc1c2c(nc3cccc(Cl)c13)CCCCC2 | 2.4
3 | CCOC(=O)c1c(C)nc2cccc(F)c2c1N | 2600
4 | Cc1nc2cccc(Cl)c2c(N)c1CNC1(C(F)(F)F)CCC(=O)O1 (stereo unspecified) | 7200
5 | Cc1nc2ccccc2c(N)c1COCc1cccc(C(=O)C(F)(F)F)c1 | 3
6 | Cc1nc2cccc(F)c2c(N)c1CSC1(C(F)(F)F)CCCO1 (stereo unspecified) | 18
7 | Cc1nc2cccc(F)c2c(N)c1CSCc1cccc(C(=O)C(F)(F)F)c1 | 3
8 | Cc1nc2cccc(Cl)c2c(N)c1COCc1cccc(C(=O)C(F)(F)F)c1 | 5.1
9 | CC(=O)c1cccc(CSCc2c(C)nc3cccc(F)c3c2N)c1 | 15000
10 | O=C(c1cccc(CBr)c1)C(F)(F)F | 360
11 | Cc1nc2cccc(F)c2c(N)c1CNC1(C(F)(F)F)CCC(=O)O1 (stereo unspecified) | 14000
12 | O=C(c1ccc(CNc2c3c(nc4cccc(Cl)c24)CCCCC3)s1)C(F)(F)F | 12
13 | Cc1nc2cccc(F)c2c(N)c1COCc1ccccc1 | 2000
14 | Cc1nc2cccc(F)c2c(N)c1CN | 1900
15 | Cc1nc2cccc(F)c2c(N)c1CSCc1cccc(C(O)C(F)(F)F)c1 (stereo unspecified) | 11000
16 | Cc1nc2cccc(F)c2c(N)c1COCc1cccc(C(=O)C(F)(F)F)c1 | 3.8
